# Laboratory results reported in PubChem BioAssay AID250 (DTP/NCI, 2004).
# Values joined by “and” are separate entries in the source; they are usually repeats but may differ in a detail not shown here. Equal entries are not always repeated. Toxic doses and inconclusive results are not listed.
# Tested on: BDF1 mice, L1210 leukemia sc, survival T/C
# Assay: NCI In Vivo Anticancer Drug Screen. Data for tumor model L1210 Leukemia (subcutaneous) in B6D2F1 (BDF1) mice
# Conditions: endpoint: median survival time, vehicle: water, higher = longer survival
# In short: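 Read-out: T/C ratio, i.e. survival or tumor size in treated mice over that in vehicle-treated controls, from mice bearing transplantable tumors.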
smiles,measurement,setting,value
O=P1(NCCCl)OCCCN1CCCl (centres undefined),T/C,"dose: 7.8 mg/kg/injection, schedule: Q03HX008 (ip)",166 % of control
same,T/C,"dose: 7.8 mg/kg/injection, schedule: Q03HX008 (sc)",111 % of control
same,T/C,"dose: 15.62 mg/kg/injection, schedule: Q03HX008 (ip)",155 % of control
same,T/C,"dose: 15.62 mg/kg/injection, schedule: Q03HX008 (sc)",122 % of control
same,T/C,"dose: 23.0 mg/kg/injection, schedule: Q03HX008 (sc)",178 % of control
same,T/C,"dose: 31.25 mg/kg/injection, schedule: Q03HX008 (ip)",166 % of control
same,T/C,"dose: 31.25 mg/kg/injection, schedule: Q03HX008 (sc)",166 % of control
same,T/C,"dose: 39.0 mg/kg/injection, schedule: Q01DX009 (sc)",168 % of control
same,T/C,"dose: 39.0 mg/kg/injection, schedule: Q01DX015 (ip)",194 % of control and 197 % of control
same,T/C,"dose: 39.0 mg/kg/injection, schedule: Q03HX008 (sc)",210 % of control
same,T/C,"dose: 62.5 mg/kg/injection, schedule: Q03HX008 (ip)",611 % of control
same,T/C,"dose: 62.5 mg/kg/injection, schedule: Q03HX008 (sc)",611 % of control
same,T/C,"dose: 65.0 mg/kg/injection, schedule: Q01DX009 (sc)",189 % of control
same,T/C,"dose: 65.0 mg/kg/injection, schedule: Q01DX015 (ip)",236 % of control
same,T/C,"dose: 65.0 mg/kg/injection, schedule: Q03HX008 (sc)",278 % of control
same,T/C,"dose: 108.0 mg/kg/injection, schedule: Q01DX001 (sc)",111 % of control and 114 % of control
same,T/C,"dose: 108.0 mg/kg/injection, schedule: Q01DX009 (sc)",236 % of control
same,T/C,"dose: 108.0 mg/kg/injection, schedule: Q01DX015 (ip)",178 % of control and 187 % of control
same,T/C,"dose: 108.0 mg/kg/injection, schedule: Q03HX008 (sc)",115 % of control
same,T/C,"dose: 108.0 mg/kg/injection, schedule: Q07DX003 (ip)",210 % of control and 218 % of control
same,T/C,"dose: 108.0 mg/kg/injection, schedule: Q08DX002 (sc)",173 % of control
same,T/C,"dose: 108.0 mg/kg/injection, schedule: Q09DX003 (sc)",154 % of control and 155 % of control
same,T/C,"dose: 125.0 mg/kg/injection, schedule: Q01DX001 (ip)",155 % of control
same,T/C,"dose: 125.0 mg/kg/injection, schedule: Q01DX001 (sc)",150 % of control
same,T/C,"dose: 130.0 mg/kg/injection, schedule: Q01DX001 (sc)",154 % of control and 157 % of control
same,T/C,"dose: 130.0 mg/kg/injection, schedule: Q04DX003 (sc)",189 % of control and 197 % of control
same,T/C,"dose: 180.0 mg/kg/injection, schedule: Q01DX001 (ip)",183 % of control and 184 % of control
same,T/C,"dose: 180.0 mg/kg/injection, schedule: Q01DX015 (ip)",156 % of control and 157 % of control
same,T/C,"dose: 180.0 mg/kg/injection, schedule: Q03HX008 (sc)",105 % of control
same,T/C,"dose: 180.0 mg/kg/injection, schedule: Q07DX003 (ip)",252 % of control and 253 % of control
same,T/C,"dose: 180.0 mg/kg/injection, schedule: Q08DX002 (sc)",215 % of control
same,T/C,"dose: 180.0 mg/kg/injection, schedule: Q09DX003 (sc)",244 % of control and 245 % of control
same,T/C,"dose: 216.0 mg/kg/injection, schedule: Q01DX001 (sc)",184 % of control and 185 % of control
same,T/C,"dose: 216.0 mg/kg/injection, schedule: Q04DX003 (sc)",210 % of control and 216 % of control
same,T/C,"dose: 250.0 mg/kg/injection, schedule: Q01DX001 (ip)",205 % of control
same,T/C,"dose: 250.0 mg/kg/injection, schedule: Q01DX001 (sc)",177 % of control
same,T/C,"dose: 256.0 mg/kg/injection, schedule: Q01DX001 (sc)",192 % of control and 195 % of control
same,T/C,"dose: 300.0 mg/kg/injection, schedule: Q01DX001 (ip)",205 % of control
same,T/C,"dose: 300.0 mg/kg/injection, schedule: Q01DX009 (sc)",157 % of control
same,T/C,"dose: 300.0 mg/kg/injection, schedule: Q07DX003 (ip)",273 % of control and 279 % of control
same,T/C,"dose: 300.0 mg/kg/injection, schedule: Q08DX002 (sc)",100 % of control
same,T/C,"dose: 300.0 mg/kg/injection, schedule: Q09DX003 (sc)",244 % of control and 247 % of control
same,T/C,"dose: 320.0 mg/kg/injection, schedule: Q01DX001 (sc)",212 % of control and 220 % of control
same,T/C,"dose: 360.0 mg/kg/injection, schedule: Q01DX001 (sc)",226 % of control and 229 % of control
same,T/C,"dose: 360.0 mg/kg/injection, schedule: Q04DX003 (sc)",242 % of control
same,T/C,"dose: 400.0 mg/kg/injection, schedule: Q01DX001 (sc)",235 % of control and 249 % of control
same,T/C,"dose: 500.0 mg/kg/injection, schedule: Q01DX001 (ip)",242 % of control
same,T/C,"dose: 500.0 mg/kg/injection, schedule: Q08DX002 (sc)",121 % of control
same,T/C,"dose: 500.0 mg/kg/injection, schedule: Q09DX003 (sc)",116 % of control and 122 % of control
same,T/C,"dose: 600.0 mg/kg/injection, schedule: Q01DX001 (sc)",77 % of control
same,T/C,"dose: 600.0 mg/kg/injection, schedule: Q04DX003 (sc)",115 % of control and 117 % of control
same,T/C,"dose: 625.0 mg/kg/injection, schedule: Q01DX001 (sc)",124 % of control
same,T/C,"dose: 833.0 mg/kg/injection, schedule: Q01DX001 (ip)",71 % of control
same,T/C,"dose: 1000.0 mg/kg/injection, schedule: Q01DX001 (sc)",63 % of control
